Assay results from article PMC6199744, “Development of Chemical Proteomics for the Folateome and Analysis of the Kinetoplastid Folateome” (ACS Infectious Diseases, 2018).
Like-named read-outs stand apart in the source and are kept apart here.

Columns and labels:
Type in all cases: binding
[1] = molecular target: T1, HeLa cell extract proteins (Homo sapiens, UniProt Q9HCC0)
T1 construct: endogenous in cells; host or cells: HeLa cell extract
T1 sequence (Q9HCC0 23-563): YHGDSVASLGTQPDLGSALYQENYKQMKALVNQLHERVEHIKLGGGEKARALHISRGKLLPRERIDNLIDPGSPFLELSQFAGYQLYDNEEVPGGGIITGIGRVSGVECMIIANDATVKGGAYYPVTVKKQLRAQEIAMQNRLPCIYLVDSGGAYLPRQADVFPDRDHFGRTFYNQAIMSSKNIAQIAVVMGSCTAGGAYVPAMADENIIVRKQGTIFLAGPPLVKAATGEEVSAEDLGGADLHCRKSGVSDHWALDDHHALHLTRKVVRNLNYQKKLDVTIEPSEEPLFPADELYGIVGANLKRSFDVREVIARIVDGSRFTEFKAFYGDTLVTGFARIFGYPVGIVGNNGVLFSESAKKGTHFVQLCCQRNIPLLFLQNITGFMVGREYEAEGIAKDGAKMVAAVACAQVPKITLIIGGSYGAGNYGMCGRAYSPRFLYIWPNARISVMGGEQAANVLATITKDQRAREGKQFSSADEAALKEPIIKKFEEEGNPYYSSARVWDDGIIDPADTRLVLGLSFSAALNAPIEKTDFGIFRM

[2] = molecular target: T2, HeLa cell extract proteins (Homo sapiens, UniProt P57088)
T2 construct: endogenous in cells; host or cells: HeLa cell extract
T2 sequence (P57088 1-247): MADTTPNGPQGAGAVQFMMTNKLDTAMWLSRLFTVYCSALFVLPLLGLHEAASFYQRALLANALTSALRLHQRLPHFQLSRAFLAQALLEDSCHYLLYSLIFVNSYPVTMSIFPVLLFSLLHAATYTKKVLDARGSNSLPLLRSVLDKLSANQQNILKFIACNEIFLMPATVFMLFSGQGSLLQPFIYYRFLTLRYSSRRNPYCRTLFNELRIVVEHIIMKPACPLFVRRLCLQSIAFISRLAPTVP

[3] = molecular target: T3, HeLa cell extract proteins (Homo sapiens, UniProt O15162)
T3 construct: endogenous in cells; host or cells: HeLa cell extract
T3 sequence (O15162 1-318): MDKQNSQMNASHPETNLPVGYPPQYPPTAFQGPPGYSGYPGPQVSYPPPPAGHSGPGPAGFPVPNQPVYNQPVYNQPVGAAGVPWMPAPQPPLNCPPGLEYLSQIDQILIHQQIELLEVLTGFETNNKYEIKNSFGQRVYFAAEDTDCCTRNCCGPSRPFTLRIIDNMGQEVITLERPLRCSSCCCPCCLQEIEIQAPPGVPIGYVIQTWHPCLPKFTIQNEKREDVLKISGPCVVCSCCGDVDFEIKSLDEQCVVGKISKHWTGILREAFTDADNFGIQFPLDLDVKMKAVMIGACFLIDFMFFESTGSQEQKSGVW

[4] = molecular target: T4, HeLa cell extract proteins (Homo sapiens, UniProt Q03393)
T4 construct: endogenous in cells; host or cells: HeLa cell extract
T4 sequence (Q03393 1-145): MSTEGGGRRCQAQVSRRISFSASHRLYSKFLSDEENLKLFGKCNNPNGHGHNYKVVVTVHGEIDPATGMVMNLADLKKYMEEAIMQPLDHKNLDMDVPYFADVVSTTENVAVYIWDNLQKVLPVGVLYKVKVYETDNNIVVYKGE

[5] = molecular target: T5, HeLa cell extract proteins (Homo sapiens, UniProt P0DMV8)
T5 construct: endogenous in cells; host or cells: HeLa cell extract
T5 sequence (P0DMV8 whole entry): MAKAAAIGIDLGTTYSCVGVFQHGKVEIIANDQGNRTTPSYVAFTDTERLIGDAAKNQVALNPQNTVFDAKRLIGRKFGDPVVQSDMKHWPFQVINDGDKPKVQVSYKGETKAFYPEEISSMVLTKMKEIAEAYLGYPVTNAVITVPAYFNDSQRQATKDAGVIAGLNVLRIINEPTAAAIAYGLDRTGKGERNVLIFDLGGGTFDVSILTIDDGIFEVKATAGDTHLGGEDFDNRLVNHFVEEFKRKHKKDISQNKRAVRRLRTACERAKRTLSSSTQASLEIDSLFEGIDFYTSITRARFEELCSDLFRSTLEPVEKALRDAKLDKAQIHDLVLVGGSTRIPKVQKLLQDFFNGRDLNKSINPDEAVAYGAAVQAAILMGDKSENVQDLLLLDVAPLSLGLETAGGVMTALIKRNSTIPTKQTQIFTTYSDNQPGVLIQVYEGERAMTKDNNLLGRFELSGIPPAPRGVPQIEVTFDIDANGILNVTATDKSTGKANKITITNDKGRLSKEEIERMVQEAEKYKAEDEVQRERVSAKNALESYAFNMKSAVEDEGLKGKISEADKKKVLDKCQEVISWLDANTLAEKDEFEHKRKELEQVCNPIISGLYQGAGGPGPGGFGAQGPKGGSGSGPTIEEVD

[6] = molecular target: T6, HeLa cell extract proteins (Homo sapiens, UniProt P30050)
T6 construct: endogenous in cells; host or cells: HeLa cell extract

[7] = molecular target: T7, HeLa cell extract proteins (Homo sapiens, UniProt O75152)
T7 construct: endogenous in cells; host or cells: HeLa cell extract
T7 sequence (O75152 whole entry): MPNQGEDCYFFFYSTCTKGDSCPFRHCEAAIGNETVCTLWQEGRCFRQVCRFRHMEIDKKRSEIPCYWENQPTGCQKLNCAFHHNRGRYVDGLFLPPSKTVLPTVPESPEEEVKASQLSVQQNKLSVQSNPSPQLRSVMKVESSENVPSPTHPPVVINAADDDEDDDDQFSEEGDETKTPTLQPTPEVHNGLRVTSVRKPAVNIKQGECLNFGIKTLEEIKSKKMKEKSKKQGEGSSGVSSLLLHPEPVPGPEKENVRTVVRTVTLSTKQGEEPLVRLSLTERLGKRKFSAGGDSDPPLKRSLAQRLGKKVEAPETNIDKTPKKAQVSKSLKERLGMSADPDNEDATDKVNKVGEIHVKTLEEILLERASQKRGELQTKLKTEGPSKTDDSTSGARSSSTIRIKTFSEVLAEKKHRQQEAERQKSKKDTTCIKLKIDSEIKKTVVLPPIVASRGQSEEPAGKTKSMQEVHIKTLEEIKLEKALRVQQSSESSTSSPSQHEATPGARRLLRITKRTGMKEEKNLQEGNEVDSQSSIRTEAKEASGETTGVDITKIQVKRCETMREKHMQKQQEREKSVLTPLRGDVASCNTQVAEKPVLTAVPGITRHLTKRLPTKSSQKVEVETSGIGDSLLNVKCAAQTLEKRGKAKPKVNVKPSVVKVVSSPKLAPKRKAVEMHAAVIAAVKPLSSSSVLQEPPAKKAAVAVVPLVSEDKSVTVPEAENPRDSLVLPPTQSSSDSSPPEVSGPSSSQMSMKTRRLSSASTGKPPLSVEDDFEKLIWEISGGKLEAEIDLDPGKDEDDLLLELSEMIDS

[8] = molecular target: T8, HeLa cell extract proteins (Homo sapiens, UniProt P50416)
T8 construct: endogenous in cells; host or cells: HeLa cell extract
T8 sequence (P50416 1-773): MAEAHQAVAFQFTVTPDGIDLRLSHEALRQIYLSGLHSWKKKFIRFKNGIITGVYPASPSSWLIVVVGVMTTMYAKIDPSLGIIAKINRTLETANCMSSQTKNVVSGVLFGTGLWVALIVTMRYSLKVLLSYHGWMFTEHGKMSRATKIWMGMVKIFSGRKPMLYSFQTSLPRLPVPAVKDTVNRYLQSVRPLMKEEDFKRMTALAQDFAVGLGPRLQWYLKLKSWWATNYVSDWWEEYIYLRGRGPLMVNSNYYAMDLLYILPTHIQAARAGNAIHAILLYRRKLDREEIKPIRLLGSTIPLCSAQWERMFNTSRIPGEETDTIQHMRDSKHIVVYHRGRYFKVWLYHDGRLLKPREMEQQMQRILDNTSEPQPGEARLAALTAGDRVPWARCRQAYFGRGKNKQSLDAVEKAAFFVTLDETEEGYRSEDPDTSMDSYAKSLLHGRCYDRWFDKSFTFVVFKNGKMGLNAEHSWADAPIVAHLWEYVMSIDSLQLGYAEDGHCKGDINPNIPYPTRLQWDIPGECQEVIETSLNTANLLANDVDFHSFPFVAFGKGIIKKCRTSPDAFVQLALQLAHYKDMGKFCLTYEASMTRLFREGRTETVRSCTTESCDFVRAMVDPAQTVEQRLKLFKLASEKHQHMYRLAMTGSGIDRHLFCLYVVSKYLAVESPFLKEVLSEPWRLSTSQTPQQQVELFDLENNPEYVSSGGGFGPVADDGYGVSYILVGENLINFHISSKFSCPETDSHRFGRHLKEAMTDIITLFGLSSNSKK

[9] = molecular target: T9, HeLa cell extract proteins (Homo sapiens, UniProt P53634)
T9 construct: endogenous in cells; host or cells: HeLa cell extract
T9 sequence (P53634 25-463): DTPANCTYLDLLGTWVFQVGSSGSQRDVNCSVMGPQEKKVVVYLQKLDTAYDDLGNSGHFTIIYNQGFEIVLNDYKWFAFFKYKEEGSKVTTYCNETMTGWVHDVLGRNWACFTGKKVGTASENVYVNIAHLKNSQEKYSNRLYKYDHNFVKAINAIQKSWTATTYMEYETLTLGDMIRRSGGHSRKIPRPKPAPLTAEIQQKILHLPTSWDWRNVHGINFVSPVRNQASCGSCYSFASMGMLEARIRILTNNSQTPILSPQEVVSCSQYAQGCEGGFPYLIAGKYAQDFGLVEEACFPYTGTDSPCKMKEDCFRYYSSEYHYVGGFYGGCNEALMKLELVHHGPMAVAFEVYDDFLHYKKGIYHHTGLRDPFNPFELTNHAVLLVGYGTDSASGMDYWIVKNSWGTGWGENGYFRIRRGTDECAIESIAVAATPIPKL

[10] = HeLa, protein ZC3H11A (ZINC FINGER CCCH DOMAIN-CONTAINING PROTEIN 11A)
[11] = HeLa, protein CTSC (DIPEPTIDYL-PEPTIDASE 1 PRECURSOR)

| SMILES | fold changes relative to vehicle control ([1]; HeLa, protein MCCC2) | fold changes relative to vehicle control ([2]; HeLa, protein TMEM33) | fold changes relative to vehicle control ([3]; HeLa, captured protein PLSCR1) | fold changes relative to vehicle control ([4]; protein PTS, HeLa) | fold changes relative to vehicle control ([5]; HeLa, captured protein HSPA1A) | fold changes relative to vehicle control ([6]; HeLa, captured protein RPL12) | fold changes relative to vehicle control [7, 10] | fold changes relative to vehicle control ([8]; HeLa, protein CPT1A) | fold changes relative to vehicle control [9, 11] | fold changes relative to vehicle control ([1]; captured protein MCCC2, HeLa) | fold changes relative to vehicle control ([2]; captured protein TMEM33, HeLa) | fold changes relative to vehicle control ([3]; HeLa, protein PLSCR1) | fold changes relative to vehicle control ([4]; captured protein PTS, HeLa) | fold changes relative to vehicle control ([5]; protein HSPA1A, HeLa) | fold changes relative to vehicle control ([6]; protein RPL12, HeLa) | fold changes relative to vehicle control ([7]; captured protein ZC3H11A, HeLa) | fold changes relative to vehicle control ([8]; captured protein CPT1A, HeLa) | fold changes relative to vehicle control ([9]; protein CTSC, HeLa) | other results |
| --- | --- | --- | --- | --- | --- | --- | --- | --- | --- | --- | --- | --- | --- | --- | --- | --- | --- | --- | --- |
| Nc1nc2c(c(=O)[nH]1)N(C=O)C(CNc1ccc(C(=O)N[C@@H](CCC(=O)O)C(=O)O)cc1)CN2 (stereo partly drawn) [LEU, leucovorin] | 0.94 | 0.88 | 1.01 | 0.83 | 1.02 | 1.11 | 1.06 | 0.88 | 1.03 | – | – | – | – | – | – | – | – | – | – |
| NCCCNc1ccc(C(=O)NC(CCC(=O)O)C(=O)O)cc1 (stereo not drawn) [compound 7] | 1 | 1.03 | 1.07 | 1.03 | 0.99 | 0.97 | 1.01 | 0.99 | 0.97 | – | – | – | – | – | – | – | – | – | – |
| CCCCCCOc1cccc(Cc2cnc(N)nc2N)c1 [compound 2] | – | – | – | – | – | – | – | – | – | 1.08 | 0.93 | 0.86 | 1.01 | 1.09 | 1.24 | 1.01 | 1.04 | 0.95 | – |
| CCCCCCOc1ccc(Cc2cnc(N)nc2N)cc1 [compound 1] | – | – | – | – | – | – | – | – | – | 0.78 | 0.86 | 1.02 | 0.72 | 0.97 | 1.15 | 0.95 | 0.9 | 0.89 | – |
| Nc1nc2cccc(-c3ccccc3)c2n1Cc1ccc(Cl)c(Cl)c1 [compound 3] | – | – | – | – | – | – | – | – | – | 0.86 | 1.14 | 0.98 | 1.1 | 1 | 1.08 | 0.94 | 0.95 | 0.86 | – |
| NCCOCCOCC(=O)Nc1nc2ncc(CNc3ccc(C(=O)NC(CCC(=O)O)C(=O)O)cc3)nc2c(=O)[nH]1 (stereo not drawn) [compound 6] | 1 | 1 | 0.96 | 0.39 | 1 | 1.12 | 0.92 | 1.01 | 0.82 | – | – | – | – | – | – | – | – | – | – |
| Nc1nc2[nH]cc(CCc3ccc(C(=O)N[C@@H](CCC(=O)O)C(=O)O)cc3)c2c(=O)[nH]1 [PTX, pemetrexed] | – | – | – | – | – | – | – | – | – | – | – | – | – | – | – | – | – | – | fold changes relative to vehicle control [1]: 0.87; fold changes relative to vehicle control [2]: 0.96; fold changes relative to vehicle control [3]: 0.96; fold changes relative to vehicle control [4]: 0.23; fold changes relative to vehicle control [5]: 0.98; fold changes relative to vehicle control [6]: 1.13; fold changes relative to vehicle control [7]: 0.96; fold changes relative to vehicle control [8]: 0.84; fold changes relative to vehicle control [9]: 0.84 |
